Consider two compounds from US20100298249A1, “PHARMACEUTICAL OR COSMETIC PREPARATIONS FOR TOPICAL AND/OR PARENTERAL APPLICATION, PREPARATION METHODS THEREOF AND USE OF SAME” (priority 2007, published 2010).

The conditions of data set [1]: humans; cited from earlier work.
Data set [2] concerns the target hyaluronidase of bovine origin (Bos taurus, UniProt Q2YDK3). Briefly: Inhibitory effect on hyaluronidase activity of bovine origin (turbidimetry of nonhydrolysed hyaluronic acid). Format: biochemical. To be noted: various concentrations, FIG. 1. The method, then: Determination of the IC50 of GLZ, with or without Preincubation at 37° C.: GLZ, at various concentrations, is or is not preincubated for 20 minutes at 37° C. in the presence of the enzyme. The enzyme reaction is triggered by adding the hyaluronic acid solution (time T0). After incubation for 20 minutes, the nonhydrolysed hyaluronic acid is precipitated by adding acidic bovine albumin solution. In order to verify that the preincubation step has no effect on the stability of the hyaluronidase, an aliquot of a solution of the enzyme is placed at 37° C. for 20 minutes. Another aliquot is conserved in an ice bath for 19 minutes, and is then incubated at 37° C. for 1 minute. A solution of hyaluronic acid is then added to each aliquot (T0). After incubation for 15, 30 or 45 minutes, the nonhydrolysed hyaluronic acid is precipitated by addition of acidic bovine albumin solution. After the precipitation step, the turbidimetry of the solutions is determined on a spectrophotometer at a wavelength of 600 nm. The optical density (OD) of these solutions is subtracted from the OD of a control solution of hyaluronic acid (of the same concentration) not hydrolysed by the enzyme. This difference in OD, which is inversely proportional to the concentration of hyaluronic acid, is used to measure the activity of the hyaluronidase.

hyaluronidase of bovine origin, sequence (Q2YDK3 entry or part of it): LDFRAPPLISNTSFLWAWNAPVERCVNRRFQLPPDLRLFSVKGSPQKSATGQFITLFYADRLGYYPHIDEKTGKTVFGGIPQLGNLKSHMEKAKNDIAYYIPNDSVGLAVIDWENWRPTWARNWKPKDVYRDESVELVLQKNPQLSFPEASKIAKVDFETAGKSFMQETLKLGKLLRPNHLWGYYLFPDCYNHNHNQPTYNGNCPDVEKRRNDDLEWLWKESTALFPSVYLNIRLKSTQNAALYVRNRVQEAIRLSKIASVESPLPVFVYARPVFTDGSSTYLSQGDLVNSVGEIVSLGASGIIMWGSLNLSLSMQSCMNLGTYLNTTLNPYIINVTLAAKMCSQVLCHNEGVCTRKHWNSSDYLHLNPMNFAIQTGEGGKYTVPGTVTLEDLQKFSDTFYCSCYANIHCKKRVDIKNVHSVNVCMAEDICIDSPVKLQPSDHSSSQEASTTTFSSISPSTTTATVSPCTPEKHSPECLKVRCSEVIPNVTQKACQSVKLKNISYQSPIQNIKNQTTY

In the case of hyaluronic acid, the “excretion in the urine” value in data set [1] is given as “less than 1 % of total clearance”. With `CC1(C)[C@@H](O[C@H]2O[C@H](C(=O)O)[C@@H](O)[C@H](O)[C@H]2O[C@@H]2O[C@H](C(=O)O)[C@@H](O)[C@H](O)[C@H]2O)CC[C@]2(C)[C@H]3C(=O)C=C4[C@@H]5C[C@@](C)(C(=O)O)CC[C@]5(C)CC[C@@]4(C)[C@]3(C)CC[C@@H]12` [GLZ, Glycyrrhizin], the “inhibitory effect on the bovine hyaluronidase” value in data set [2] is reported as “dose-dependent”.
